Experimental data taken from patent US20240158386A1, “BENZOXAZOLONE INHIBITORS OF INFLAMMASOMES” (ICAHN SCHOOL OF MEDICINE AT MOUNT SINAI, priority 2021, published 2024).

Assays:
[1] = target: T1, Human recombinant NLRP3 protein (Homo sapiens, UniProt Q96P20); assay: Inhibition of the NLRP3 ATPase activity (cell-free, ADP-Glo); format: biochemical; settings: isolated protein, 10 μM ATP
T1 construct: purchased BPS Bioscience, San Diego CA
Method: Inhibition of the NLRP3 ATPase activity. The efficacy of C77 to inhibit ATP hydrolysis by NLRP3 was directly assayed using a cell-free assay. Human recombinant NLRP3 protein (BPS Bioscience, San Diego CA) was incubated at 37° C. with different concentrations of C77 for 20 min, as previously described (Cocco, M., et al. (2017) Development of an Acrylate Derivative Targeting the NLRP3 Inflammasome for the Treatment of Inflammatory Bowel Disease. J. Med. Chem. 60, 3656-3671). 10 μM ultrapure ATP was then added, and reaction mixtures were further incubated for 45 min. ATP conversion into ADP was determined using the ADP-Glo Kinase Assay (Promega), following the recommendations of the manufacturer, in a SpectraMax i3x Multimode Detection Platform.

[2] = test system: NLRP3, caspase-1, IL-1β, IL-6, IL-8, and TNF-α gene expression; assay: Gene expression analysis in cell cultures (FIG. 3C); format: cell-based, human
Method: (§1) Gene expression analysis. RNA was isolated from frontal cortex from C57BL/6J mice or from THP1 human cultures using the RNeasy Mini Kit (QIAGEN, Hilden, Germany), following the recommendations of the manufacturer. RNA concentration was determined, and cDNA was synthesized using the High-Capacity cDNA Reverse Transcription Kit with RNase Inhibitor (applied biosystems™). The expression levels of inflammatory genes—NLRP3, caspase-1, IL-1β, TNF-α, NLRC4, IL-18, and IL6—were determined in 4 replicates through PowerUp SYBER Green Master Mix (Thermofisher) using an ABI PRISM […] Sequence Detection System. Hypoxanthine phosphoribosyltransferase (HPRT) was used as an internal control in samples from mouse brains, and GAPDH in the case of THP1 lysates. Gene expression levels were normalized to control samples (mice or THP1 cells treated with PBS).

[3] = test system: inflammasome priming (NLRP3, caspase-1, IL-1β, TNF-α, IL6, NLRC4 expression); assay: In-vivo assessment of C77: RNA expression of inflammatory genes in mouse brain; parameters: species or system WT C57BL/6J mice; settings: 50 mg/kg 2 hours before LPS administration
Method: as §1
Animals used in in-vivo assessments. WT C57BL/6J mice (stock #000664) were obtained from The Jackson Laboratory. Mice were housed in groups of five animals per cage on a 12:12 hours light/dark cycle. Water and food were provided ad libitum. 8-10 weeks males were used for experiments. All procedures were approved by the Institutional Animal Care and use Committee of the Icahn School of Medicine at Mount Sinai.
In-vivo assessment of C77. The ability of C77 to inhibit NLRP3 in-vivo was evaluated using WT C57BL/6J mice. […]

T1 sequence (Q96P20 whole entry): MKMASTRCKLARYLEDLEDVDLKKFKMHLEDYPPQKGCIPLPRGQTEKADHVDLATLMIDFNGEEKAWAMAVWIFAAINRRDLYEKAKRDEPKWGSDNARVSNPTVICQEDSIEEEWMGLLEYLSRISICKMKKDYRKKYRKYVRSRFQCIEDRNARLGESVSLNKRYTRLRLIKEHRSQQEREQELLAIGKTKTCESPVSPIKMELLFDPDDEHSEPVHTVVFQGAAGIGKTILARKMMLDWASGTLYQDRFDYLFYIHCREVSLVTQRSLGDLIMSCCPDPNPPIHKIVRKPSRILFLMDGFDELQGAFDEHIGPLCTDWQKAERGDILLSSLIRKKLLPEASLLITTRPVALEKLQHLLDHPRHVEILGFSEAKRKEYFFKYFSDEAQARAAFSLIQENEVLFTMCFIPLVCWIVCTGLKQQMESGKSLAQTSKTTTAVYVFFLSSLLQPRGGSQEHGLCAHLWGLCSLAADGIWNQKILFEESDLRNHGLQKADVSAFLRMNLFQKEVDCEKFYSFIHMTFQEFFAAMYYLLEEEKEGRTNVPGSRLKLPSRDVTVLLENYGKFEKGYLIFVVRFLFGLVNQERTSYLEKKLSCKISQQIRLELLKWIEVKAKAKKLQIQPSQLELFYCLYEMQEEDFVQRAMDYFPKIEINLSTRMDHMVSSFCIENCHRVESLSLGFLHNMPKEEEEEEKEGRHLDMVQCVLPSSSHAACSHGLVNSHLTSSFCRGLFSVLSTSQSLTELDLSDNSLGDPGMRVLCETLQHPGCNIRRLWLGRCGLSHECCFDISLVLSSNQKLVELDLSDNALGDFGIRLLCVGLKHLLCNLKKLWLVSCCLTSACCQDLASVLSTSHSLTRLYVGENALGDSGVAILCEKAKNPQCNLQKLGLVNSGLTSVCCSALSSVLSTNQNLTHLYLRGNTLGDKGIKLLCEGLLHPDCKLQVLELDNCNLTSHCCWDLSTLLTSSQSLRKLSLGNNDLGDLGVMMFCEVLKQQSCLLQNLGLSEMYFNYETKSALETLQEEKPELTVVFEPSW

## O=C(Cn1c(=O)oc2ccccc21)NCc1cncc(-c2ccsc2)c1 [Compound C77]
[1]
  concentrations with statistically significant inhibition of NLRP3 ATPase activity: ≥ 10 nM
[1]; nonlinear fit
  IC50: 40 nM
[2]
  expression of caspase-1: slightly reduced the expression of caspase-1
  mRNA levels of IL-6, IL-8, or TNF-α: did not modify the mRNA levels
  transcriptional priming of NLRP3 or IL-1β: did not affect the transcriptional priming
[3]
  overexpression of inflammatory genes (NLRP3, IL1β, TNF-α, IL6) in mouse brain: did not reduce the overexpression of these genes
